The results in this text go back to publication PMC9227305, “Photoinduced Synthesis of Methylated Marine Cyclopeptide Galaxamide Analogs with Isoindolinone as Anticancer Agents” (Marine Drugs, 2022).

Format in all cases: cell-based, human
Assay [1] relates to HepG-2 cells. Briefly: Cell cycle analysis by PI flow cytometry. Here is the method: The four phases in the cell cycle, mitosis (M), gap 1 (G1), synthesis of DNA (S), and gap 2 (G2), can be analysized by a commonly used dye, propidium iodide (PI), which could intercalate into the major groove of double-stranded DNA and produce a highly fluorescent adduct that can be detected due to its broad emission around 600 nm. In this research, the drug-treated tumor cells were fixed overnight at 4 °C with 70% ice-cold ethanol and then treated with Rnase A/PI for 60 min at 37 °C and analyzed by flow cytometry.
HepG-2 cells were inoculated in 6-well plates and incubated for 24 h. Then, different concentrations of compound 8 were added to the wells and incubated for the required time. The collected cells in the experimental and control groups were digested with trypsin, centrifuged (1000 r/min, 5 min), resuspended in PBS and fixed by 70% ice ethanol (3 mL) at −20 °C for 24 h. Then, cells were washed twice with PBS and resuspended in PBS (0.9 mL), then treated with 100 µL RNase (100 µg/mL) for 30 min at 37 °C. After centrifuging the mixture for 5 min, the cells were resuspended in 50 µg/mL PBS and stained with 600 µL of PI solution (Beyotime Biotechnology, Shanghai, China) for 60 min at 4 °C to stain. Finally, the physical properties of individual cells at different mitotic stages were analyzed by flow cytometry (BD Accuri C6, BD Biosciences, Franklin Lakes, NJ, USA).
(In general: A flow cytometer gives signals particle by particle.)

The next assay relates to MDM2. The assay is described as follows: Western blot of MDM2 level. To be noted: HepG-2 cells, 48 h, increasing drug concentration. The source says: The p53 tumor suppressor plays a key role in preventing tumor development. In cancers retaining wild-type p53, the function of p53 can be suppressed by a variety of factors, and the murine double minute 2 (MDM2) protein is an important endogenous cellular inhibitor of p53 [29]. Therefore, inhibiting or blocking MDM2 protein should be an efficient strategy for the development of an antitumor agent. Actually, various MDM2 inhibitors have been studied and screened in recent years, including small molecules and polypeptides. […] Considering that the isoindolinone fragment is always present in the structure of MDM2 inhibitors and plays an important role in binding to the target protein, we tried to detect the MDM2 and p53 protein levels by Western blotting to assess the inhibiting ability of cyclic peptides containing isoindolinone fragments to MDM2 oncoprotein.
HepG-2 cells (5 × 10^6 cells) in the medium were treated with different concentrations of compounds for the required time and were washed twice with ice-cold PBS. The cells were scraped into cell lysate buffer containing phenylmethanesulfonyl fluoride (PMSF) and transferred to a 1.5 mL centrifuge tube, then lysed for 20 min at 4 °C. After centrifuging (12,000 r/min) for 20 min, the supernatant was collected and measured using the BCA Protein Assay Kit (Beyotime Biotechnology Co. Ltd., Shanghai, China)). […]
In general terms: A western blot detects proteins with antibodies after separation by electrophoresis.

The subject of assay [2] is HepG-2 cells. Briefly: Mitochondrial membrane potential, rhodamine 123 flow cytometry. To be noted: control 44.9%. As for the experimental part:
A classical fluorescent dye, rhodamine 123, is selectively sequestered by active mitochondrial respiration, but is washed out in cells with decreased MMP, so that the dye fluorescence intensity reflects the level of mitochondrial activity and can be applied in the monitoring of MMP [23].
In this study, we have studied the change of MMP of HepG-2 cells after treatment with different concentrations (0, 5.5, 11 and 22 µM within 48 h) and different time periods (12, 24 and 48 h with 11 µM) of compound 8. Cells were stained with rhodamine 123 and analyzed by flow cytometry. […] The aforementioned analysis clearly discloses that the cyclic peptides can affect the mitochondrial membrane potential and induce apoptosis, consistent with the findings in cell cycle analysis.
Cells in the logarithmic phase were seeded in 6-well plates and incubated for 24 h. After refreshing the culture medium, different concentrations of compound 8 (0, 5.5, 11, 22 μM) were added and co-incubated for 48 h. Meanwhile, the cells were also treated with 11 μM of compound 8 within different time periods (12 h, 24 h, 48 h). Then, the cells were collected by trypsin digestion and washed with phosphate-buffered solution. After centrifuging (1000 r/min) for 5 min, the obtained cell precipitate was suspended in PBS (100 µL); then, 100 µL of rhodamine 123 (1 µM) was added and incubated for 20 min. The cells were centrifuged, resuspended in 600 µL PBS, and analyzed by flow cytometry (maximum excitation wavelength 507 and maximum emission wavelength 529 nm). At least 10,000 events were counted in the experiment.

Structures are written as SMILES. *1 amine or outer side, *2 acyl side, *3 side chain or, on linkers, in order; H or OH if unused. Where a SMILES comes first, the peptide text is derived from it. [ ]: non-standard residue; d: D form. X1 = O=C1c2ccccc2[C@@](O)(CN(Cc2ccccc2)[*:1])N1CC(=O)[*:2]; NMeL = CN[C@@H](CC(C)C)C(=O)O

On to `CC(C)C[C@@H]1NC(=O)CN2C(=O)c3ccccc3[C@@]2(O)CN(Cc2ccccc2)C(=O)[C@H](CC(C)C)NC(=O)[C@H](CC(C)C)N(C)C(=O)[C@H](CC(C)C)NC(=O)[C@H](CC(C)C)NC1=O` [Compound 8, 3-Hydroxy-isoindolinone-cyclo-Gly-Leu-N-Me-Leu-Leu-Leu-Leu] (cyclo(LL[NMeL]L[X1]L)), for which the “4N (G2/M phase) cells” value is 12.0% with HepG-2 cells [1] (5.5 μM, 48 h); 10.1% in the assay on HepG-2 cells [1] (11 μM, 12 h); 17.4% in the assay on HepG-2 cells [1] (11 μM, 24 h); 25.8% in the assay on HepG-2 cells [1] (11 μM, 48 h); 33.0% with HepG-2 cells [1] (22 μM, 48 h). In the assay with MDM2, the “level of MDM2” value is listed as “decreased gradually”. For the same molecule, the “mean mitochondrial fluorescence intensity (rhodamine 123)” value turned out to be 27.1% in the assay on HepG-2 cells [2] (5.5 µM, 48 h); 29.4% with HepG-2 cells [2] (11 µM, 12 h); 24.3% in the assay on HepG-2 cells [2] (11 µM, 24 h); 20.2% in the assay on HepG-2 cells [2] (11 µM, 48 h); 14.3% in the assay with HepG-2 cells [2] (22 µM, 48 h).
